Results on three molecules are retold here after patent publication US20250283049A1, “AGENT FOR CULTURING ORGANOID IN ABSENCE OF EXTRACELLULAR MATRIX” (KEIO UNIVERSITY, priority 2022, published 2025).

Holding throughout (format): cell-based
The test system of test [1] is human small intestine-derived organoid. Description: Culture of organoids in absence of Matrigel with LATS kinase inhibitor; cell number by ATP (CellTiter-Glo 3D). The settings on record: both Lats-IN (10 μM) and MYF01-37 added. The method, then: (§1) In this experimental example, a human small intestine-derived organoid and human large intestine-derived organoid established in the presence of Matrigel (registered trademark) were cultured in the absence of Matrigel (registered trademark) and in the presence of a LATS kinase inhibitor (final concentration: 10 μM), and their dynamics were observed. The procedure was the same as in Experimental Example 1, except that each organoid was cultured in the absence of Matrigel (registered trademark).
The upper left panel of FIG. 3 is a photograph of a control (Ctrl) human small intestine-derived organoid cultured in the absence of Lats-IN, and the upper center panel of FIG. 3 is a photograph of a human small intestine-derived organoid cultured in the presence of Lats-IN. The scale bar is 100 μm. […] The vertical axis of the graph represents luminescence intensity (relative value) indicating the amount of ATP present. […]
(§2) FIG. 8 presents graphs showing the results of measuring the proliferation of the human small intestine-derived and human large intestine-derived organoids in the absence of Lats-IN (Ctrl), in the presence of Lats-IN (Lats-IN), in the presence of Lats-IN and MYF01-37 (Lats-IN+MYF), and in the presence of MYF01-37 (MYF). The cell proliferation was measured by measuring ATP using a commercially available kit (product name “CellTiter-Glo 3D,” Promega Corporation). The vertical axis of the graph represents luminescence intensity (relative value) indicating the amount of ATP present. […]
(§3) FIG. 26 presents graphs showing the results of measuring cell number in each organoid after 6 days of culture by measuring ATP using a commercially available kit (product name “CellTiter-Glo 3D,” Promega Corporation). The vertical axis of the graph represents luminescence intensity (relative value) indicating the amount of ATP present.

The subject of test [2] is human large intestine-derived organoid. Described as above. To be noted: both Lats-IN (10 μM) and MYF01-37 added. The method, then:
as §1
The lower left panel of FIG. 3 is a photograph of a control (Ctrl) human large intestine-derived organoid cultured in the absence of Lats-IN, and the lower center panel of FIG. 3 is a photograph of a human large intestine-derived organoid cultured in the presence of Lats-IN. The scale bar is 100 μm. The lower right panel of FIG. 3 is a graph showing the results of measuring cell number in the human large intestine-derived organoids cultured in the presence of the control (Ctrl) and Lats-IN. The vertical axis of the graph represents luminescence intensity (relative value) indicating the amount of ATP present. […]
as §2, §3

In test [3] the test system is human liver cell organoids. As to the kind of experiment: Culturing liver cell organoids in absence of Matrigel; number of viable cells (CellTiter-Glo 3D). The settings on record: for number of viable cells, higher than control group: day 6 after seeding. The method, then:
Human liver cell organoids, established from primary human liver cells, were supplemented with TrypLE Express (Thermo Fisher Scientific) and incubated at 37° C. for 5 minutes to dissociate them into single cells.
The cells were then collected and suspended in proliferation medium separately supplemented with 2, 5, 10, 20, or 50 μM TDI-011536 (CAS No. 2687970-96-1), and […] seeded into an ultra-low attachment 96-well plate at 2,000 cells/well. The preferred seeding density is 2,000 to 4,000 cells/well. In addition, cells in proliferation medium supplemented with no TDI-011536 were prepared as a control.
The proliferation medium was a medium consisting of a basal medium (Advanced DMEM/F-12 medium, 10 mM HEPES, 2 mM GlutaMAX, 100 U penicillin, 100 μg/mL streptomycin) supplemented with 10% afamin-Wnt-3A conditioned medium, 2% R-spondin 1 conditioned medium, 2% Noggin conditioned medium, and 20 ng/ml Oncostatin M.
On day 6 after seeding, the number of viable cells in the human liver cell organoids was measured using a commercially available kit (product name “CellTiter-Glo 3D,” Promega Corporation).

The subject of test [4] is primary human liver cells (EpCAM-negative). As to the kind of experiment: Establishment of liver cell organoids in absence of Matrigel. To be noted: for establishment of human liver cell organoids: proliferation medium with both 20 μM TDI-011536 and 20 ng/ml Oncostatin M. The method, then: Frozen primary human liver cells were suspended in Advanced DMEM/F-12 medium and thawed. Two types of primary human liver cells, Line 1 and Line 2, were used.
Subsequently, each of the thawed primary human liver cells was stained with an APC-labeled mouse anti-human EpCAM antibody, and EpCAM-negative cells were collected using a cell sorter. The collected cells were then suspended in proliferation medium supplemented with 20 μM TDI-011536 and seeded into an ultra-low attachment 96-well plate at 3,000 to 4,000 cells/well. The cells were then cultured to obtain liver cell organoids. In addition, for comparison, cells were also prepared using proliferation medium supplemented with no TDI-011536 or no Oncostatin M.
The passaging of liver cell organoids in the absence of Matrigel (registered trademark) was performed as follows. First, calcium ions and magnesium ions were chelated using 1 mM EDTA/phosphate buffered saline (PBS). Subsequently, the liver cell organoids were supplemented with TrypLE Express (Thermo Fisher Scientific) and incubated at 37° C. for 5 minutes to dissociate them into single cells.
The collected cells were then suspended in proliferation medium supplemented with 20 μM TDI-011536 and seeded into an ultra-low attachment 96-well plate at 2,000 cells/well.
The scale bar is 500 μm. FIG. 24 presents graphs showing the results of measuring changes in cell proliferation over time. In FIG. 24, the vertical axes of the graphs represent cell proliferation (fold increase), and the horizontal axes indicate the number of days of culture. In FIGS. 23 and 24, “OSM” represents Oncostatin M, and “Lats IN” represents the LATS kinase inhibitor (TDI-011536).

Turning to `C=CC(=O)N1CCC(C)(Nc2cccc(C(F)(F)F)c2)C1` (centres unmarked) [MYF01-37], the “cell proliferation (ATP luminescence) when TEAD inhibited” value in test [1] and in test [2] was “inhibited” throughout.

For `O=C(N=c1scc(CO)n1Cc1ccccc1)c1c[nH]c2ncccc12` [TDI-011536], the “number of viable cells, higher than control group” value came out at 16 fold in test [3] (20 μM) and 17 fold in test [3] (50 μM). Further, the “number of viable cells (words, FIG. 22)” value in test [3] (adding the LATS kinase inhibitor) was “increase in the number of viable cells was observed”. Also, in test [4] (20 μM TDI-011536 and Oncostatin M), the “duration for which established organoids could be cultured” value was “at least two months”. The “establishment of human liver cell organoids” value in test [4] is on record as “successfully established”.

B1: Oncostatin M: cytokine of a cytokine family that binds to gp130 (protein, UniProt P13725 26-221, looked up)
Oncostatin-M: AAIGSCSKEYRVLLGQLQKQTDLMQDTSRLLDPYIRIQGLDVPKLREHCRERPGAFPSEETLRGLGRRGFLQTLNATLGCVLHRLADLEQRLPKAQDLERSGLNIEDLEKLQMARPNILGLRNNIYCMAQLLDNSDTAEPTKAGRGASQPPTPTPASDAFQRKLEGCRFLHGYHRFMHSVGRVFSKWGESPNRSRR
Regarding B1, the “establishment of human liver cell organoids” value in test [4] was “successfully established”.
